{"source": "PubChem BioAssay AID1259407", "about": "(Chemical Carcinogenesis Research Information System (CCRIS), 2018)", "tested_on": "CCRIS mutagenicity, Ames/micronucleus/aberration tests", "experiment": "CCRIS mutagenicity studies", "note": "The source made the active and inactive calls. No rule for the calls is given here.", "data": [{"smiles": "CCCCCCCCCCCCS", "values": [{"measurement": "mutagenic call", "setting": "Test System: AMES SALMONELLA TYPHIMURIUM, Strain/Indicator: TA98, Metabolic Activation: HAMSTER, LIVER, S-9, AROCLOR 1254 (10%), Method: PREINCUBATION", "result": "inactive; negative"}, {"measurement": "mutagenic call", "setting": "Test System: AMES SALMONELLA TYPHIMURIUM, Strain/Indicator: TA98, Metabolic Activation: HAMSTER, LIVER, S-9, AROCLOR 1254, Method: STANDARD PLATE", "result": "inactive; negative"}, {"measurement": "mutagenic call", "setting": "Test System: AMES SALMONELLA TYPHIMURIUM, Strain/Indicator: TA98, Metabolic Activation: NONE, Method: PREINCUBATION", "result": "inactive; negative"}, {"measurement": "mutagenic call", "setting": "Test System: AMES SALMONELLA TYPHIMURIUM, Strain/Indicator: TA98, Metabolic Activation: NONE, Method: STANDARD PLATE", "result": "inactive; negative"}, {"measurement": "mutagenic call", "setting": "Test System: AMES SALMONELLA TYPHIMURIUM, Strain/Indicator: TA98, Metabolic Activation: RAT, LIVER, S-9, AROCLOR 1254 (10%), Method: PREINCUBATION", "result": "inactive; negative"}, {"measurement": "mutagenic call", "setting": "Test System: AMES SALMONELLA TYPHIMURIUM, Strain/Indicator: TA98, Metabolic Activation: RAT, LIVER, S-9, AROCLOR 1254, Method: STANDARD PLATE", "result": "inactive; negative"}, {"measurement": "mutagenic call", "setting": "Test System: AMES SALMONELLA TYPHIMURIUM, Strain/Indicator: TA100, Metabolic Activation: HAMSTER, LIVER, S-9, AROCLOR 1254 (10%), Method: PREINCUBATION", "result": "inactive; negative"}, {"measurement": "mutagenic call", "setting": "Test System: AMES SALMONELLA TYPHIMURIUM, Strain/Indicator: TA100, Metabolic Activation: HAMSTER, LIVER, S-9, AROCLOR 1254, Method: STANDARD PLATE", "result": "inactive; negative"}, {"measurement": "mutagenic call", "setting": "Test System: AMES SALMONELLA TYPHIMURIUM, Strain/Indicator: TA100, Metabolic Activation: NONE, Method: PREINCUBATION", "result": "inactive; negative"}, {"measurement": "mutagenic call", "setting": "Test System: AMES SALMONELLA TYPHIMURIUM, Strain/Indicator: TA100, Metabolic Activation: NONE, Method: STANDARD PLATE", "result": "inactive; negative"}, {"measurement": "mutagenic call", "setting": "Test System: AMES SALMONELLA TYPHIMURIUM, Strain/Indicator: TA100, Metabolic Activation: RAT, LIVER, S-9, AROCLOR 1254 (10%), Method: PREINCUBATION", "result": "inactive; negative"}, {"measurement": "mutagenic call", "setting": "Test System: AMES SALMONELLA TYPHIMURIUM, Strain/Indicator: TA100, Metabolic Activation: RAT, LIVER, S-9, AROCLOR 1254, Method: STANDARD PLATE", "result": "inactive; negative"}, {"measurement": "mutagenic call", "setting": "Test System: AMES SALMONELLA TYPHIMURIUM, Strain/Indicator: TA1535, Metabolic Activation: HAMSTER, LIVER, S-9, AROCLOR 1254 (10%), Method: PREINCUBATION", "result": "inactive; negative"}, {"measurement": "mutagenic call", "setting": "Test System: AMES SALMONELLA TYPHIMURIUM, Strain/Indicator: TA1535, Metabolic Activation: HAMSTER, LIVER, S-9, AROCLOR 1254, Method: STANDARD PLATE", "result": "inactive; negative"}, {"measurement": "mutagenic call", "setting": "Test System: AMES SALMONELLA TYPHIMURIUM, Strain/Indicator: TA1535, Metabolic Activation: NONE, Method: PREINCUBATION", "result": "inactive; negative"}, {"measurement": "mutagenic call", "setting": "Test System: AMES SALMONELLA TYPHIMURIUM, Strain/Indicator: TA1535, Metabolic Activation: NONE, Method: STANDARD PLATE", "result": "inactive; negative"}, {"measurement": "mutagenic call", "setting": "Test System: AMES SALMONELLA TYPHIMURIUM, Strain/Indicator: TA1535, Metabolic Activation: RAT, LIVER, S-9, AROCLOR 1254 (10%), Method: PREINCUBATION", "result": "inactive; negative"}, {"measurement": "mutagenic call", "setting": "Test System: AMES SALMONELLA TYPHIMURIUM, Strain/Indicator: TA1535, Metabolic Activation: RAT, LIVER, S-9, AROCLOR 1254, Method: STANDARD PLATE", "result": "inactive; negative"}, {"measurement": "mutagenic call", "setting": "Test System: AMES SALMONELLA TYPHIMURIUM, Strain/Indicator: TA1537, Metabolic Activation: HAMSTER, LIVER, S-9, AROCLOR 1254 (10%), Method: PREINCUBATION", "result": "inactive; negative"}, {"measurement": "mutagenic call", "setting": "Test System: AMES SALMONELLA TYPHIMURIUM, Strain/Indicator: TA1537, Metabolic Activation: HAMSTER, LIVER, S-9, AROCLOR 1254, Method: STANDARD PLATE", "result": "inactive; negative"}, {"measurement": "mutagenic call", "setting": "Test System: AMES SALMONELLA TYPHIMURIUM, Strain/Indicator: TA1537, Metabolic Activation: NONE, Method: PREINCUBATION", "result": "inactive; negative"}, {"measurement": "mutagenic call", "setting": "Test System: AMES SALMONELLA TYPHIMURIUM, Strain/Indicator: TA1537, Metabolic Activation: NONE, Method: STANDARD PLATE", "result": "inactive; negative"}, {"measurement": "mutagenic call", "setting": "Test System: AMES SALMONELLA TYPHIMURIUM, Strain/Indicator: TA1537, Metabolic Activation: RAT, LIVER, S-9, AROCLOR 1254 (10%), Method: PREINCUBATION", "result": "inactive; negative"}, {"measurement": "mutagenic call", "setting": "Test System: AMES SALMONELLA TYPHIMURIUM, Strain/Indicator: TA1537, Metabolic Activation: RAT, LIVER, S-9, AROCLOR 1254, Method: STANDARD PLATE", "result": "inactive; negative"}, {"measurement": "mutagenic call", "setting": "Test System: AMES SALMONELLA TYPHIMURIUM, Strain/Indicator: TA1538, Metabolic Activation: HAMSTER, LIVER, S-9, AROCLOR 1254, Method: STANDARD PLATE", "result": "inactive; negative"}, {"measurement": "mutagenic call", "setting": "Test System: AMES SALMONELLA TYPHIMURIUM, Strain/Indicator: TA1538, Metabolic Activation: NONE, Method: STANDARD PLATE", "result": "inactive; negative"}, {"measurement": "mutagenic call", "setting": "Test System: AMES SALMONELLA TYPHIMURIUM, Strain/Indicator: TA1538, Metabolic Activation: RAT, LIVER, S-9, AROCLOR 1254, Method: STANDARD PLATE", "result": "inactive; negative"}, {"measurement": "mutagenic call", "setting": "Test System: MOUSE LYMPHOMA, Strain/Indicator: L5178Y (TK+/TK-), Metabolic Activation: NONE, Method: SUSPENSION/PLATE", "result": "inactive; negative. reevaluation of results: negative"}, {"measurement": "mutagenic call", "setting": "Test System: MOUSE LYMPHOMA, Strain/Indicator: L5178Y (TK+/TK-), Metabolic Activation: RAT, LIVER, S-9, AROCLOR 1254, Method: SUSPENSION/PLATE", "result": "inactive; negative. reevaluation of results: negative"}]}, {"smiles": "O=c1nc(NO)ccn1[C@@H]1O[C@H](CO)[C@@H](O)[C@H]1O", "values": [{"measurement": "mutagenic call", "setting": "Test System: E. COLI, Strain/Indicator: WP2, Metabolic Activation: NONE, Method: STANDARD PLATE", "result": "active; positive"}, {"measurement": "mutagenic call", "setting": "Test System: E. COLI, Strain/Indicator: WP2 UVRA, Metabolic Activation: NONE, Method: STANDARD PLATE", "result": "active; positive"}]}]}
